Experimental findings from US7897627B2, “Heteroaryl derivatives as orexin receptor antagonists” (Hoffmann-La Roche Inc., priority 2007, dated 2011) are described below.

The target in the assay is T1, human orexin-2 (hOX2) receptor (Homo sapiens, UniProt O43614).
T1 construct: expressed in transfected cells
T1 sequence (O43614 1-444): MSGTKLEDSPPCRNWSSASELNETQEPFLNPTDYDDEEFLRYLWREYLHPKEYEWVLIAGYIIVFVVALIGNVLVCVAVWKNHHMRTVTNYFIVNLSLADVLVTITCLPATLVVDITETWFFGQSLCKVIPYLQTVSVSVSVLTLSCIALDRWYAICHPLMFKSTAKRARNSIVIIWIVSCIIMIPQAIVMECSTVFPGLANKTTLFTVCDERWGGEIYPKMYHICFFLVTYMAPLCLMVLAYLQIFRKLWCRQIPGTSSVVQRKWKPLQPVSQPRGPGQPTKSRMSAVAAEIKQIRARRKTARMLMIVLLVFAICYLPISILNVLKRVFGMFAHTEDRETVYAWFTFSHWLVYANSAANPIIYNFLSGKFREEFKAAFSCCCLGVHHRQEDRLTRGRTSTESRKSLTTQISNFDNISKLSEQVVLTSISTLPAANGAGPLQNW
In words: Intracellular Ca2+ mobilization assay (FLIPR), CHO(dHFr-) cells expressing hOX2, orexin-A as agonist. In kind it is cell-based. Conditions: antagonist Kb=IC50/(1+[A]/EC50); orexin-A at EC80; CHO(dHFr-)-OX2R cells; antagonist applied 25 min before agonist. The procedure:
Intracellular Ca^2+ Mobilization Assay
The Chinese Hamster Ovary (dHFr-) mutant cell line stably expressing human orexin-1 (hOX1) or human orexin-2 (hOX2) receptors were maintained in Dulbecco's Modified Eagle Medium (1×) with GlutaMax™1, 4500 mg/L D-Glucose and Sodium Pyruvate (Catalog No. 31966-021, Invitrogen, Carlsbad, Calif.), 5% dialyzed fetal calf serum (Catalog No. 26400-044), 100 μg/ml penicillin and 100 μg/ml streptomycin. The cells were seeded at 5×10^4 cells/well in the poly-D-lysine treated, 96-well, black/clear-bottomed plates (Catalog No. BD356640, BD Biosciences, Palo Alto, Calif.). 24 h later, the cells were loaded for 1 h at 37° C. with 4 μM Flou-4 acetoxymethyl ester (Catalog No. F-14202, Molecular Probes, Eugene, Oreg.) in FLIPR buffer (1×HBSS, 20 mM HEPES, 2.5 mM Probenecid). Hanks' Balanced Salt Solution (HBSS) (10×) (catalog No. 14065-049) and HEPES (1M) (catalog No. 15630-056) were purchased from Invitrogen, Carlsbad, Calif. Probenecid (250 mM) (catalog No. P8761) was from Sigma, Buchs, Switzerland. The cells were washed five times with FLIPR buffer to remove excess dye and intracellular calcium mobilization, [Ca^2−]i were measured using a Fluorometric Imaging Plate Reader (FLIPR-96, Molecular Devices, Menlo Park, Calif.) as described previously (Malherbe et al., Mol. Pharmacol., 64, 823-832, 2003). Orexin A (catalog No. 1455, Toris Cookson Ltd, Bristol, UK) was used as agonist. Orexin A ([…] stock solution in DMSO) was diluted in FLIPR buffer+0.1% BSA. The EC50 and EC80 values of orexin-A were measured daily from standard agonist concentration-response curves in CHO(dHFr-)-OX1R and -OX2R cell lines. All compounds were dissolved in 100% DMSO. Inhibition curves were determined by addition of 11 concentrations (0.0001-10 μM) of inhibitory compounds and using EC80 value of orexin-A as agonist (a concentration which gave 80% of max agonist response, determined daily). The antagonists were applied 25 min (incubation at 37° C.) before the application of the agonist. Responses were measured as peak increase in fluorescence minus basal, normalized to the maximal stimulatory effect induced by EC80 value of orexin-A or orexin-B. Inhibition curves were fitted according to the Hill equation: y=100/(1+(x/IC50)^nH), where nH=slope factor using Excel-fit 4 software (Microsoft).
Kb values were calculated according to the following equation Kb=IC50/(1+[A]/EC50) where A is the concentration of agonist added which is very close to agonist EC80 value, and IC50 and EC50 values were derived from the antagonist inhibition and orexin-A or B agonist curves, respectively.
A word on the Kb: it is the equilibrium dissociation constant of an antagonist, usually derived from a functional assay. Read a high Kb as lower antagonist affinity. `Cc1noc(-c2ccccc2C(=O)N2CC[C@@H](Nc3nc4c(F)cccc4s3)C2)n1` [Example 126, [(R)-3-(4-Fluoro-benzothiazol-2-ylamino)-pyrrolidin-1-yl]-[2-(3-methyl-[1,2,4]oxadiazol-5-yl)-phenyl]-methanone] gave a Kb of 0.0144 µM.
The figure for `O=C(c1ccccc1OC(F)(F)C(F)F)N1CC[C@@H](Nc2nc3cc(F)cc(F)c3s2)C1` [Example 132, [(R)-3-(5,7-Difluoro-benzothiazol-2-ylamino)-pyrrolidin-1-yl]-[2-(1,1,2,2-tetrafluoro-ethoxy)-phenyl]-methanone] is 0.016 µM; for `Cc1onc(-c2ccccc2)c1C(=O)N1CC[C@@H](Nc2nc3cc(F)cc(F)c3s2)C1` [Example 134, [(R)-3-(5,7-Difluoro-benzothiazol-2-ylamino)-pyrrolidin-1-yl]-(5-methyl-3-phenyl-isoxazol-4-yl)-methanone] it is 0.0228 µM; for `Cc1noc(-c2ccccc2C(=O)N2CC[C@@H](Nc3nc4cc(F)cc(F)c4s3)C2)n1` [Example 135, [(R)-3-(5,7-Difluoro-benzothiazol-2-ylamino)-pyrrolidin-1-yl]-[2-(3-methyl-[1,2,4]oxadiazol-5-yl)-phenyl]-methanone] it is 0.0394 µM.
The value for `O=C(c1ccccc1OC(F)(F)C(F)F)N1CC[C@@H](Nc2nc3cccc(F)c3o2)C1` [Example 141, [(R)-3-(7-Fluoro-benzooxazol-2-ylamino)-pyrrolidin-1-yl]-[2-(1,1,2,2-tetrafluoro-ethoxy)-phenyl]-methanone] was 0.0138 µM; that for `O=C(c1ccccc1OC(F)(F)F)N1CC[C@@H](Nc2nc3ccc(F)c(F)c3o2)C1` [Example 148, [(R)-3-(6,7-Difluoro-benzooxazol-2-ylamino)-pyrrolidin-1-yl]-(2-trifluoromethoxy-phenyl)-methanone] was 0.0386 µM; that for `O=C(c1ccccc1OC(F)(F)C(F)F)N1CC[C@@H](Nc2nc3ccc(F)c(F)c3o2)C1` [Example 149, [(R)-3-(6,7-Difluoro-benzooxazol-2-ylamino)-pyrrolidin-1-yl]-[2-(1,1,2,2-tetrafluoro-ethoxy)-phenyl]-methanone] was 0.0072 µM.
The figure for `Cc1ccc(C(F)(F)F)c(C(=O)N2CC[C@@H](Nc3nc4ccc(F)c(F)c4o3)C2)c1` [Example 150, [(R)-3-(6,7-Difluoro-benzooxazol-2-ylamino)-pyrrolidin-1-yl]-(5-methyl-2-trifluoromethyl-phenyl)-methanone] is 0.0136 µM; for `Cc1onc(-c2ccccc2)c1C(=O)N1CC[C@@H](Nc2nc3ccc(F)c(F)c3o2)C1` [Example 151, [(R)-3-(6,7-Difluoro-benzooxazol-2-ylamino)-pyrrolidin-1-yl]-(5-methyl-3-phenyl-isoxazol-4-yl)-methanone] it is 0.0355 µM.
Take `Cc1nc(C(=O)N2CC[C@@H](Nc3nc4ccc(F)c(F)c4o3)C2)c(-c2ccccc2)s1` [Example 155, [(R)-3-(6,7-Difluoro-benzooxazol-2-ylamino)-pyrrolidin-1-yl]-(2-methyl-5-phenyl-thiazol-4-yl)-methanone]: the Kb was 0.0304 µM.
The value for `O=C(c1ccccc1OC(F)(F)F)N1CC[C@@H](Nc2nc3ccc(F)cc3o2)C1` [Example 157, [(R)-3-(6-Fluoro-benzooxazol-2-ylamino)-pyrrolidin-1-yl]-(2-trifluoromethoxy-phenyl)-methanone] was 0.0247 µM; that for `O=C(c1ccccc1OC(F)(F)C(F)F)N1CC[C@@H](Nc2nc3ccc(F)cc3o2)C1` [Example 158, [(R)-3-(6-Fluoro-benzooxazol-2-ylamino)-pyrrolidin-1-yl]-[2-(1,1,2,2-tetrafluoro-ethoxy)-phenyl]-methanone] was 0.0039 µM.
The value for `Cc1ccc(C(F)(F)F)c(C(=O)N2CC[C@@H](Nc3nc4ccc(F)cc4o3)C2)c1` [Example 159, [(R)-3-(6-Fluoro-benzooxazol-2-ylamino)-pyrrolidin-1-yl]-(5-methyl-2-trifluoromethyl-phenyl)-methanone] was 0.0205 µM.
The figure for `Cc1nc(C(=O)N2CC[C@@H](Nc3nc4ccc(F)cc4o3)C2)c(-c2ccccc2)s1` [Example 164, [(R)-3-(6-Fluoro-benzooxazol-2-ylamino)-pyrrolidin-1-yl]-(2-methyl-5-phenyl-thiazol-4-yl)-methanone] is 0.047 µM; for `O=C(c1ccccc1C(F)(F)F)N1CC[C@@H](Nc2cnc3cc(F)c(F)cc3n2)C1` [Example 165, [(R)-3-(6,7-Difluoro-quinoxalin-2-ylamino)-pyrrolidin-1-yl]-(2-trifluoromethyl-phenyl)-methanone] it is 0.0185 µM.
In the case of `O=C(c1ccccc1OC(F)(F)F)N1CC[C@@H](Nc2cnc3cc(F)c(F)cc3n2)C1` [Example 166, [(R)-3-(6,7-Difluoro-quinoxalin-2-ylamino)-pyrrolidin-1-yl]-(2-trifluoromethoxy-phenyl)-methanone], the Kb was found to be 0.009 µM.
The figure for `O=C(c1ccccc1OC(F)(F)C(F)F)N1CC[C@@H](Nc2cnc3cc(F)c(F)cc3n2)C1` [Example 167, [(R)-3-(6,7-Difluoro-quinoxalin-2-ylamino)-pyrrolidin-1-yl]-[2-(1,1,2,2-tetrafluoro-ethoxy)-phenyl]-methanone] is 0.001 µM; for `Cc1onc(-c2ccccc2)c1C(=O)N1CC[C@@H](Nc2cnc3cc(F)c(F)cc3n2)C1` [Example 168, [(R)-3-(6,7-Difluoro-quinoxalin-2-ylamino)-pyrrolidin-1-yl]-(5-methyl-3-phenyl-isoxazol-4-yl)-methanone] it is 0.0038 µM.
The figure for `Cc1noc(-c2ccccc2C(=O)N2CC[C@@H](Nc3cnc4cc(F)c(F)cc4n3)C2)n1` [Example 169, [(R)-3-(6,7-Difluoro-quinoxalin-2-ylamino)-pyrrolidin-1-yl]-[2-(3-methyl-[1,2,4]oxadiazol-5-yl)-phenyl]-methanone] is 0.0021 µM.
The figure for `Cc1ccc(Cl)c(C(=O)N2CC[C@@H](Nc3cnc4cc(F)c(F)cc4n3)C2)c1` [Example 170, (2-Chloro-5-methyl-phenyl)-[(R)-3-(6,7-difluoro-quinoxalin-2-ylamino)-pyrrolidin-1-yl]-methanone] is 0.0129 µM.
Take `COc1ccc(C)cc1C(=O)N1CC[C@@H](Nc2cnc3cc(F)c(F)cc3n2)C1` [Example 171, [(R)-3-(6,7-Difluoro-quinoxalin-2-ylamino)-pyrrolidin-1-yl]-(2-methoxy-5-methyl-phenyl)-methanone]: the Kb was found to be 0.0245 µM.
With `Cc1nc(C(=O)N2CC[C@@H](Nc3cnc4cc(F)c(F)cc4n3)C2)c(-c2ccccc2)s1` [Example 172, [(R)-3-(6,7-Difluoro-quinoxalin-2-ylamino)-pyrrolidin-1-yl]-(2-methyl-5-phenyl-thiazol-4-yl)-methanone], the Kb came to 0.0032 µM.
Take `O=C(c1ccccc1OC(F)(F)C(F)F)N1CC[C@@H](Nc2cnc3cc(Cl)ccc3n2)C1` [Example 175, [(R)-3-(6-Chloro-quinoxalin-2-ylamino)-pyrrolidin-1-yl]-[2-(1,1,2,2-tetrafluoro-ethoxy)-phenyl]-methanone]: the Kb worked out at 0.0187 µM.
The figure for `Cc1ccc(C(F)(F)F)c(C(=O)N2CC[C@@H](Nc3cnc4cc(Cl)ccc4n3)C2)c1` [Example 176, [(R)-3-(6-Chloro-quinoxalin-2-ylamino)-pyrrolidin-1-yl]-(5-methyl-2-trifluoromethyl-phenyl)-methanone] is 0.014 µM.
The figure for `Cc1onc(-c2ccccc2)c1C(=O)N1CC[C@@H](Nc2cnc3cc(Cl)ccc3n2)C1` [Example 177, [(R)-3-(6-Chloro-quinoxalin-2-ylamino)-pyrrolidin-1-yl]-(5-methyl-3-phenyl-isoxazol-4-yl)-methanone] is 0.0423 µM.
